This is an account of results in patent EP0492136A2, “Retroviral protease inhibitors derived from 3-chloro-2-chloromethyl-1-propene” (AMERICAN CYANAMID COMPANY, priority 1990, dated 1992).

Assay [1] has as its target T1, HIV-1 protease (Human immunodeficiency virus type 1 group M subtype B, UniProt P04585).
T1 construct: HIV-1 protease is available for purchase from Medigenics; purchased Medigenics, 701 Mercy Rd., Suite 420, Omaha, Nebraska 68106
Nature of the assay: in vitro inhibition of HIV-1 protease (octapeptide substrate cleavage, HPLC). It is filed as biochemical. The following applies: substrate H-Val-Ser-Gln-Asn-Tyr-Pro-Ile-Val-OH. The protocol:
HIV-1 protease is available for purchase from Medigenics, 701 Mercy Rd., Suite 420, Omaha, Nebraska 68106. Protease activity is assayed using the octapeptide H-Val-Ser-Gln-Asn-Tyr-Pro-Ile-Val-OH as the substrate. Cleavage of the substrate is quantitated by measuring the production of H-Val-Ser-Gln-Asn-Tyr-OH by HPLC analysis by the method described by Tomaselli et al., (cited previously).

The subject of assay [2] is HIV-1 strain IIIB. In words: inhibition of growth of HIV-1 in MT-2 cells, CPE (cell death) measured with MTT dye. The following applies: T lymphoid MT-2 cell lines, after 5 days; for inhibition at 2.5 µg/mL / inhibition at 0.625 µg/mL: Human immunodeficiency virus 1, IIIB, MT2, 120 h, read-out: % Inhibition at Concentration. The format is cell-based. The source says:
In Table 3 data is shown for the ability of these compounds to inhibit growth of HIV-1 strain IIIB in T lymphoid MT-2 cell lines. The endpoint of these experiments after 5 days is CPE (cell death) measured with the metabolic MTT dye.

Assay [3] relates to HTLV-IIIB strain of HIV-1. Nature of the assay: anti-HIV-1 activity in H9 based tissue culture, supernatant p24 antigen. It is filed as cell-based. As to conditions: for inhibition at 0.2 µg/mL / inhibition at 2 µg/mL / inhibition at 20 µg/mL: Human immunodeficiency virus 1, IIIB, read-out: % Inhibition p24; for % Inhibition p24: H9 culture, relative to infected control cultures. The protocol:
Compounds are also tested for their ability to act as anti-HIV-1 compounds in tissue culture. The tests are performed in H9 based tissue culture challenged with HTLV-IIIB strain of HIV-1. The assay consists of evaluating the percent inhibition of supernatent p24 antigen concentrations relative to infected control cultures, as well as percent viable cells at 20 µg/ml in uninfected cells.

With `CC(C)(C)NC(=O)C(Cc1ccccc1)CC(O)CC(Cc1ccccc1)C(=O)NC(C)(C)C` (stereo not drawn) [Example 36], it took 0.1 µM to reach half-maximal inhibition in assay [1] (IC50).
Regarding `CC(C)(C)NC(=O)C1CCCCN1CC(O)(CO)CN1CCCCC1C(=O)NC(C)(C)C` (single isomer, unassigned) [58 (Isomer B)], the IC50 (usually the concentration at which inhibition is half-maximal) in assay [1] was 100 µM.
On to `CC(C)C(NC(=O)C(Cc1ccccc1)CC(O)CC(Cc1ccccc1)C(=O)NC(C(=O)NCc1nc2ccccc2[nH]1)C(C)C)C(=O)NCc1nc2ccccc2[nH]1` (stereo not drawn) [Example 328, [1S-[1R*[2S*,6S*,7R*],2R*]]-4-Hydroxy-2,6-bis(phenylmethyl)-N,N'-bis[1-[[(1-H-benzimidazoyl-2ylmethyl)amino]carbonyl]-2-methylpropyl]-heptanediamide], for which the inhibition at 2.5 µg/mL in assay [2] (2.5 µg/ml) amounted to 72.8%. In addition, the inhibition at 0.625 µg/mL in assay [2] (.625 µg/ml) worked out at 17.1%. The IC50 in assay [1] is 0.005 µM.
In the case of `COC(=O)[C@H](Cc1ccccc1)NC(=O)[C@@H](NC(=O)[C@H](Cc1ccccc1)CC(O)C[C@@H](Cc1ccccc1)C(=O)N[C@H](C(=O)N[C@@H](Cc1ccccc1)C(=O)OC)C(C)C)C(C)C` [Example 110, [R-(R*,R*)]-N^ω,N^ω'-(2,6-Bis(phenylmethyl)-4-hydroxy-1,7-dioxo-1,7-heptanediyl)bis[N-L-valyl-L-phenylalanine] dimethyl ester], the inhibition at 2.5 µg/mL in assay [2] (2.5 µg/ml) came out at 58.7%. Moreover, in assay [2] (.625 µg/ml), the inhibition at 0.625 µg/mL amounted to 16.6%. In assay [1], this compound displayed an IC50 of 0.01 µM.
For `O=C(Cc1ccccn1)NC1CCCCC1NC(=O)C(Cc1ccccc1)CC(O)CC(Cc1ccccc1)C(=O)NC1CCCCC1NC(=O)Cc1ccccn1` (stereo not drawn) [Example 327, [1S-[1α[2R*,6R*,7(1R*,2R*)],2β]]-4-Hydroxy-2,6-bis(phenylmethyl)-N,N'-bis[[((2-pyridyl)acetyl)amino]cyclohexyl]-heptanediamde], the “% Inhibition at Concentration” value in assay [2] (2.5 µg/ml) and in assay [2] (.625 µg/ml) was 3.2% each time. The compound further returned an IC50 in assay [1] of 0.1 µM.
In the case of `CCOC(=O)CN(Cc1ccccc1)CC(O)(CO)CN(CC(=O)OCC)Cc1ccccc1` [Example 55], in assay [3], the inhibition at 0.2 µg/mL stood at 0%, the inhibition at 2 µg/mL turned out to be 0% and the inhibition at 20 µg/mL stood at 0%. In assay [1], this compound had an IC50 of 100 µM.
Consider `O=C(NC1CCCCC1Nc1ccncc1)C(Cc1ccccc1)CC(O)CC(Cc1ccccc1)C(=O)NC1CCCCC1Nc1ccncc1` (stereo not drawn) [Example 323, [1S-[1α[2R*,6R*,7(1R*,2R*)],2β]]-4-Hydroxy-2,6-bis(phenylmethyl)-N,N'-bis[[(4-pyridyl)amino]cyclohexyl]-heptanediamde], for which the figures for the “% Inhibition at Concentration” value in assay [2] (2.5 µg/ml) and in assay [2] (.625 µg/ml) were 3.1% and 0.2%, respectively. This compound had an IC50 in assay [1] of 0.1 µM.
With `O=C(NC1CCCCC1Nc1cccnc1)C(Cc1ccccc1)CC(O)CC(Cc1ccccc1)C(=O)NC1CCCCC1Nc1cccnc1` (stereo not drawn) [Example 324, [1S-[1α[2R*,6R*,7(1R*,2R*)],2β]]-4-Hydroxy-2,6-bis(phenylmethyl)-N,N'-bis[[(3-pyridyl)amino]cyclohexyl]-heptanediamde], the half-maximal inhibitory concentration (IC50) in assay [1] amounted to 0.1 µM.
Turning to `CCOC(=O)CN(CC1CCCCC1)CC(O)(CO)CN(CC(=O)OCC)CC1CCCCC1` [Example 60], 50 µM corresponded to half-maximal inhibition in assay [1] (IC50).
The same measure, in the same setting: to `O=C(NCC1CCCCC1)C(Cc1ccccc1)CC(O)CC(Cc1ccccc1)C(=O)NCC1CCCCC1` (stereo not drawn) [Example 42] belongs 50 µM.
For the compound `O=C(NC1CCCCC1Nc1ccccn1)C(Cc1ccccc1)CC(O)CC(Cc1ccccc1)C(=O)NC1CCCCC1Nc1ccccn1` (stereo not drawn) [Example 325, [1S-[1α[2R*,6R*,7(1R*,2R*)],2β]]-4-Hydroxy-2,6-bis(phenylmethyl)-N,N'-bis[[(2-pyridyl)amino]cyclohexyl]-heptanediamde], the % Inhibition (as a rule, how much of the control response was suppressed) at Concentration in assay [2] (2.5 µg/ml) came to 3.8%; in assay [2] (.625 µg/ml), 0.0%. The compound also displayed a concentration for half-maximal inhibition (IC50) in assay [1] of 0.1 µM.
`CCC(C)C(NC(=O)C(Cc1ccccc1)CC(O)CC(Cc1ccccc1)C(=O)NC(C(=O)NCc1nc2ccccc2[nH]1)C(C)CC)C(=O)NCc1nc2ccccc2[nH]1` (stereo not drawn) [Example 329, [1S-[1R*[2S*,6S*,7(1R*,2R*)],2R*]]-4-Hydroxy-2,6-bis(phenylmethyl)-N,N'-bis[1-[[(1-H-benzimidazoyl-2ylmethyl)amino]carbonyl]-2-methylbutyl]heptanediamide]: the inhibition at 2.5 µg/mL in assay [2] (2.5 µg/ml) was found to be 97.9%. Besides, in assay [2] (.625 µg/ml), the inhibition at 0.625 µg/mL was 92.5%. Also, the IC50 in assay [1] amounted to 0.005 µM.
On to `O=C(NC1CCCCC1)[C@H](Cc1ccccc1)CC(O)C[C@@H](Cc1ccccc1)C(=O)NC1CCCCC1` [Example 330, [R-(R*,R*)]-N,N'dicyclohexyl-4-hydroxy-2,6-bis(phenylmethyl) heptanediamide], for which, in assay [3], the inhibition at 0.2 µg/mL worked out at 0%, the inhibition at 2 µg/mL worked out at 0% and the inhibition at 20 µg/mL was determined as 0%. The compound also displayed an IC50 in assay [1] of 0.1 µM.
As for `CC(C)(C)OC(=O)NC1CCCCC1NC(=O)C(Cc1ccccc1)CC(O)CC(Cc1ccccc1)C(=O)NC1CCCCC1NC(=O)OC(C)(C)C` (stereo not drawn) [Example 46], the IC50 in assay [1] was found to be 0.8 µM.
In the case of `CC(C)(C)NC(=O)CN(Cc1ccccc1)CC(O)(CO)CN(CC(=O)NC(C)(C)C)Cc1ccccc1` [Example 52], in assay [3], the inhibition at 0.2 µg/mL was 0%, the inhibition at 2 µg/mL was determined as 0% and the inhibition at 20 µg/mL stood at 90%. The IC50 in assay [1] was determined as 5 µM.
On to `CC(C)(C)NC(=O)CN(Cc1ccccc1)CC(O)CN(CC(=O)NC(C)(C)C)Cc1ccccc1` [Example 53], for which the IC50 in assay [1] worked out at 100 µM.
For the compound `CC(C)CNC(=O)[C@H](Cc1ccccc1)CC(O)C[C@@H](Cc1ccccc1)C(=O)NCC(C)C` (relative stereo) [Example 331, [R,(R*,R*)-N,N'-4-hydroxy-N,N'-bis(2-methylpropyl)-2,6-bis(phenylmethyl)heptanediamide], the IC50 in assay [1] was found to be 0.5 µM.
The same measure, in the same setting: then `CCOC(=O)CN(Cc1ccccc1)CC(O)(CO)CN(CC(=O)NC(C)(C)C)Cc1ccccc1` (stereo not drawn) [Example 54], with 100 µM.
Take `CC(=O)NC1CCCCC1NC(=O)C(Cc1ccccc1)CC(O)CC(Cc1ccccc1)C(=O)NC1CCCCC1NC(C)=O` (stereo not drawn) [Example 326, [1S-[1α[2R*,6R*,7(1R*,2R*)],2β]]-4-Hydroxy-2,6-bis(phenylmethyl)-N,N'-bis[[(2-acetyl)amino]cyclohexyl]-heptanediamde]: the “% Inhibition p24” value in assay [3] (2 µg/ml) turned out to be 0%; in assay [3] (20 µg/ml), 3%; in assay [3] (.2 µg/ml) it was 0%. In assay [1], this compound displayed an IC50 of 0.1 µM.
Consider `O=C(NC1CCCC1)C(Cc1ccccc1)CC(O)CC(Cc1ccccc1)C(=O)NC1CCCC1` (stereo not drawn) [Example 39], for which the midpoint of inhibition in assay [1], the IC50, lay at 0.01 µM. That is a double-digit nanomolar value.
In assay [1], `CC(C)(C)NC(=O)C1CCCCN1CC(O)(CO)CN1CCCCC1C(=O)NC(C)(C)C` (single isomer, unassigned) [58 (Isomer A)] gave an IC50 greater than 1000 µM.
